Test results published in patent US20180170941A1 (priority 2016, published 2018).

Target: T1, α5β3γ2 GABAA receptors (Ltk cell membranes) (Homo sapiens, UniProt P18507+P31644)
T1 construct: membranes
Assay: Binding activity of test compounds on GABAAR: inhibition of [3H]Ro15-1788 binding
Settings: not given
Procedure, shortened: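 Membranes from dexamethasone-induced Ltk cells (α5 line: 0.5 μM, 1 day); binding with [3H]Ro15-1788 for 1 h at 4 °C in 50 mM KH2PO4, 1 mM EDTA, 0.2 M KCl, pH 7.4, 0.2 mg/ml α5 protein. Nonspecific binding defined by 10 μM diazepam; filtration, scintillation counting, triplicates.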

T1 sequence (P31644 32-462): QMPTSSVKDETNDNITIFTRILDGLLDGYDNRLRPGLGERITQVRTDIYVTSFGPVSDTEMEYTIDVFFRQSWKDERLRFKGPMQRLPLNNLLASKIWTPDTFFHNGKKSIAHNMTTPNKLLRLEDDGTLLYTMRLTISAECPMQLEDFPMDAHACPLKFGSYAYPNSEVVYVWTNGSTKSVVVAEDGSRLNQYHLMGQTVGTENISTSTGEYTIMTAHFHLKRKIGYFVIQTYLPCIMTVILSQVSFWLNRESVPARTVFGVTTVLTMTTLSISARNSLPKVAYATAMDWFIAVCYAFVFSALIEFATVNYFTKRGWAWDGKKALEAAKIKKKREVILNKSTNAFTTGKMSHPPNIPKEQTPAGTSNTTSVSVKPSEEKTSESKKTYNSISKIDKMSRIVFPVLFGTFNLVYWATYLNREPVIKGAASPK
T1 sequence (P28472 26-473 partner): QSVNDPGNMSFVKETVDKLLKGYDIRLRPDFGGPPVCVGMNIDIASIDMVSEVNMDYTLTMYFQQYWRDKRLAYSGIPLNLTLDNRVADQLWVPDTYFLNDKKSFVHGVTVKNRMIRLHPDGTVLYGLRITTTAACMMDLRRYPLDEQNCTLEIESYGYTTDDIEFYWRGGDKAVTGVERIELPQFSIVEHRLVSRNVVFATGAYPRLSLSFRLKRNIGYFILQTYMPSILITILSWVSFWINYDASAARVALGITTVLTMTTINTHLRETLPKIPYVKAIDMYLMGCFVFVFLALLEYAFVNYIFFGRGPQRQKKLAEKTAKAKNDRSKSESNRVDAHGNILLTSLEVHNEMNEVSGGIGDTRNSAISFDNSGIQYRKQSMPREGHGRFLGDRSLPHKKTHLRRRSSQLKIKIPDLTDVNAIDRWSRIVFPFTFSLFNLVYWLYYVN
T1 sequence (P18507 40-475): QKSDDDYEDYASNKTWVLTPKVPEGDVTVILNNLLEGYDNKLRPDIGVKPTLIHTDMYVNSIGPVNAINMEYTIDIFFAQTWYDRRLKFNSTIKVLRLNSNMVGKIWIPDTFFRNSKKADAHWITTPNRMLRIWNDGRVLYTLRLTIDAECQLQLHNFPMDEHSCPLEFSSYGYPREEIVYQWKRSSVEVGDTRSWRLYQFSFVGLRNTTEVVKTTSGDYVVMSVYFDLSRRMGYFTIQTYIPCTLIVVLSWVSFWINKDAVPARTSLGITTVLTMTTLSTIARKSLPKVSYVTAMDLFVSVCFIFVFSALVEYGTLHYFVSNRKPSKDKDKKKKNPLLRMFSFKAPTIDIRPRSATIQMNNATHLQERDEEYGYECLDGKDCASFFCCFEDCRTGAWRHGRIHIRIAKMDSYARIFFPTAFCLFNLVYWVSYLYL

| SMILES | Ki |
| --- | --- |
| Clc1ccc2c(c1)-c1nnc(COc3ccccc3)n1Cc1c(C3OCCO3)ncn1-2 [Compound 204] | > 1000 nM |
| COCc1nnc2n1Cc1c(-c3ncco3)ncn1-c1c(Cl)cccc1-2 [Compound 466] | > 1000 nM |
| COCc1nnc2n1Cc1c(C3=NCC(C)(C)CO3)ncn1-c1ccc(Cl)cc1-2 [Compound 239] | > 1000 nM |
| COCc1nnc2n1Cc1c(-c3nc(C)no3)ncn1-c1c(Cl)cccc1-2 [Compound 463] | > 1000 nM |

Same assay, conditions: GABA α5 Binding Ki Values, inhibition of [3H]Ro15-1788 binding; reported as ranges

| SMILES | Ki |
| --- | --- |
| COc1ccc2c(c1)-n1nncc1Cc1c(-c3nc(-c4ccccc4)co3)ncn1-2 [Compound 388] | < 100 nM |
| COCc1nnc2n1Cc1c(C3=N[C@@H](c4ccc(OC)cc4)CO3)ncn1-c1ccc(Cl)cc1-2 [Compound 332] | < 100 nM |
| COc1ccc2c(c1)-c1nnc(COCc3ccccc3)n1Cc1c(C#N)ncn1-2 [Compound 166] | < 100 nM |
| Cc1nc(-c2ncn3c2Cn2c(COc4ccccc4)nnc2-c2cc(F)ccc2-3)no1 [Compound 148] | < 100 nM |
| Cc1nnn2c1Cc1c(C(=O)OC(C)C)ncn1-c1ccc(F)cc1-2 [Compound 112] | < 100 nM |
| COCc1nnc2n1Cc1c(-c3nc(-c4ccc(F)cc4)co3)ncn1-c1ccc(Cl)cc1-2 [Compound 324] | < 100 nM |
| CCOC(=O)c1ncn2c1Cc1c(Cc3ccccc3Cl)nnn1-c1cc(OC)ccc1-2 [Compound 108] | < 100 nM |
| N#Cc1ncn2c1Cc1c(COc3cccc(F)c3)nnn1-c1cc(Cl)ccc1-2 [Compound 227] | < 100 nM |
| COc1ccc2c(c1)-n1nnc(Cc3cccnc3)c1Cc1c(C#N)ncn1-2 [Compound 210] | < 100 nM |
| COc1ccc2c(c1)-n1nncc1Cc1c(C#Cc3ccccn3)ncn1-2 [Compound 408] | < 100 nM |
| Clc1ccc2c(c1)-n1nncc1Cc1c(C#Cc3cccnc3)ncn1-2 [Compound 402] | < 100 nM |
| Cc1nnn2c1Cc1c(C3=N[C@@H](c4ccc(F)cc4)CO3)ncn1-c1ccc(Cl)cc1-2 [Compound 379] | 100 to 1000 nM |
| Cc1nnn2c1Cc1c(-c3noc(C(C)(C)C)n3)ncn1-c1ccc(F)cc1-2 [Compound 160] | < 100 nM |
| CC(C)OC(=O)c1ncn2c1Cn1c(COc3ccccc3)nnc1-c1cc(F)ccc1-2 [Compound 156] | < 100 nM |
| COCc1nnc2n1Cc1c(C3=N[C@@H](c4cc(F)ccc4F)CO3)ncn1-c1ccc(Cl)cc1-2 [Compound 335] | < 100 nM |
| COc1ccc2c(c1)-c1nnc(COc3ccc(F)cc3)n1Cc1c(-c3noc(C(C)C)n3)ncn1-2 [Compound 172] | < 100 nM |
| COc1ccc2c(c1)-n1nncc1Cc1c(C3=N[C@@H](c4ccccc4F)CO3)ncn1-2 [Compound 366] | < 100 nM |
| CCOC(=O)c1ncn2c1Cc1c(Cc3cccc(Cl)c3)nnn1-c1cc(OC)ccc1-2 [Compound 52] | < 100 nM |
| CCOCc1nnc2n1Cc1c(-c3noc(C(C)C)n3)ncn1-c1ccc(OC)cc1-2 [Compound 173] | < 100 nM |
| COCc1nnc2n1Cc1c(C3=NCCO3)ncn1-c1ccc(Cl)cc1-2 [Compound 238] | < 100 nM |
| FC(F)(F)COCc1nnc2n1Cc1c(C3=NCCO3)ncn1-c1ccc(Cl)cc1-2 [Compound 309] | 100 to 1000 nM |
| Fc1ccc2c(c1)-c1nnc(COc3ccccc3)n1Cc1c(-c3noc(C(F)(F)F)n3)ncn1-2 [Compound 159] | < 100 nM |
| CCOC(=O)c1ncn2c1Cc1c(C)nnn1-c1cc(C)ccc1-2 [Compound 102] | < 100 nM |
| COCc1nnc2n1Cc1c(-c3cc(C)no3)ncn1-c1ccc(Cl)cc1-2 [Compound 233] | < 100 nM |
| COCc1nnc2n1Cc1c(-c3nc(C)no3)ncn1-c1ccc(OC(F)(F)F)cc1-2 [Compound 456] | < 100 nM |
| COc1ccc2c(c1)-c1nnc(COc3ccc(F)cc3)n1Cc1c(-c3noc(C)n3)ncn1-2 [Compound 163] | < 100 nM |
| COCc1nnc2n1Cc1c(C3=N[C@H](CC(C)C)CO3)ncn1-c1ccc(Cl)cc1-2 [Compound 267] | 100 to 1000 nM |
| C=Cc1ncn2c1Cc1c(Cc3ccccc3)nnn1-c1cc(OC)ccc1-2 [Compound 220] | 100 to 1000 nM |

Same assay, conditions: inhibition of [3H]Ro15-1788 binding; reported as ranges

| SMILES | Ki |
| --- | --- |
| COCc1nnc2n1Cc1c(COc3ccccc3)ncn1-c1ccc(Cl)cc1-2 [Compound 429] | > 1000 nM |
